Key:
[1] = molecular target: T1, microtubular protein isolated from calf brains (bovine brain tubulin) (Bos taurus, UniProt P81947+Q6B856); assay: Tubulin polymerization inhibition (TPI); assay type: biochemical; conditions: in vitro tubulin polymerization, mean ± SD
T1 construct: from tissue; host or cells: calf (bovine) brain
Description: We evaluated the capacity of the new synthesized compounds to inhibit the polymerization of microtubular protein isolated from calf brains. The assays were performed by taking absorbance measurements to quantify the amount of polymer mass formed in the presence (or absence; negative controls) of the compounds.
Bovine brain tubulin was isolated as previously described by following a modified version of the Shelanski method. The protein was stored at −80 °C, and its concentration was determined by employing the Bradford method before each use. […] Tubulin polymerization, caused when heating the samples, was accompanied by an increase in the absorbance (at 450 nm) of the sample that was monitored by using a Helios α spectrophotometer. […] Measurements were performed in triplicate in two independent experiments using microtubular proteins from different preparations.

[2] = test system: U87 MG cells; assay: Cell cycle analysis by flow cytometry (PI), U87 MG; assay type: cell-based, human; conditions: 100 nM
Description: To assess how tubulin polymerization inhibition and the effects on the microtubule network affect the cell cycle, flow cytometry experiments were performed on HeLa, MCF7, and U87 MG cells 24, 48, and 72 h after treatments with compounds 10, 12, and 14 at 100 nM using propidium iodide (PI) for DNA staining and untreated cells as the negative control.
HeLa, MCF7, or U87 MG cells were seeded in 6-well plates (8·10^4 cells/mL, 2 mL/well) and incubated in complete DMEM Medium (see above) at 37 °C and 5% CO2 atmosphere for 24 h. Then, the cells were treated with selected compounds (10, 12, or 14) at 100 nM, and untreated cells were used as negative controls. Cells were collected 24, 48, or 72 h following treatment and fixed overnight in ethanol/PBS (7:3) at 4 °C. After two washes with PBS, cells were suspended in PBS and incubated in darkness overnight with 0.2 mg/mL RNase A (Sigma-Aldrich, St. Louis, MO, USA), 50 µg/mL propidium iodide (Sigma-Aldrich, St. Louis, MO, USA), and Triton 10x at room temperature. A BD Accuri™ C6 Plus Flow Cytometer (BD Biosciences, Franklin Lakes, NJ, USA) cytometer was used to analyze the samples, and BD Accuri™ C6 Software (version 1.0.264.21) was used for data analysis.

[3] = test system: MCF7 cells; assay: Apoptotic cell death quantification, Annexin V-FITC/PI, MCF7; assay type: cell-based, human; conditions: MCF7, 72 h, 100 nM; for Necrotic cells: PI+ AnV−
Description: To characterize the cell death mechanism induced by the representative compounds 10, 12, or 14 at 100 nM on HeLa, MCF7, and U87 MG cells, dual-channel flow cytometry studies were carried out for cells in the absence (negative control) or presence of compounds 72 h after treatment. Fluorescein isothiocyanate-labeled Annexin V (FITC-AnV) and propidium iodide (PI) were used for double staining. Regarding their response to AnV and PI, cells can be identified as viable (PI−, AnV−), early apoptotic (PI−, AnV+), late apoptotic or secondary necrotic (PI+, AnV+), or necrotic (PI+, AnV−). The translocation of the phosphatidylserine from the inner to the outer cell membrane causes the response of apoptotic cells to AnV, whereas only cells suffering some kind of membrane disintegration (late apoptotic or necrotic cells) allow PI permeation.
Following the manufacturer’s guidelines, an Annexin V-FITC/PI apoptosis detection kit (Immunostep, Salamanca, Spain) was used to quantify HeLa, MCF7, or U87 MG cells. Cells were seeded in 12-well plates (5·10^4 cells/mL, 1 mL/well) and incubated in complete DMEM medium (see above) at 37 °C and 5% CO2 atmosphere for 24 h. Then, the cells were treated with selected compounds (10, 12, or 14) at 100 nM, and untreated cells were used as negative controls. Then, 72 h after incubation, the cells were harvested, centrifugated, resuspended in the Annexin V binding buffer, and incubated in darkness with Annexin V-FITC/PI for 15 min at room temperature. The samples were analyzed by using a BD Accuri™ C6 Plus Flow Cytometer (BD Biosciences), and acquired data were analyzed via BD Accuri™ C6 Software (version 1.0.264.21).

[4] = test system: microtubule network of MCF7 cells; assay: Immunofluorescence confocal microscopy of microtubule network, MCF7; assay type: cell-based, human; conditions: MCF7, 24 h, 100 nM, α-tubulin immunofluorescence
Description: To elucidate if the interaction of the compounds with tubulin inferred from the in vitro TPI experiments has consequences on cellular microtubules, we studied the effect of representative compounds on the microtubule network of HeLa, MCF7, and U87 MG cells 24 h after treatment via the use of immunofluorescence confocal microscopy through α-tubulin and nuclei labeling.
HeLa, MCF7, and U87 MG cells (8·10^4 cells/mL) were grown on 0.01% poly-L-lysine pre-coated square glass coverslips (22 mm^2), deposited on 6-well plates (1 coverslip/well), and incubated in complete DMEM medium (see above) at 37 °C and 5% CO2 atmosphere for 24 h. Then, the cells were incubated for 24 h in the presence or absence (negative controls) of selected compounds (10, 12, or 14) at 100 nM. After drug treatment incubation, medium was removed, and coverslips were washed three times with PBS, fixed with 4% formaldehyde in PBS for 10 min, permeabilized with 0.5% Triton X-100, (Sigma-Aldrich, St. Louis, MO, USA) in PBS for 90 s at 4 °C, blocked with 10% BSA in PBS for 30 min, and washed with PBS four times. The coverslips were incubated for 1 h with anti-α-tubulin mouse monoclonal antibody (Sigma-Aldrich, St. Louis, MO, USA), diluted 1:200 in PBS containing 3% BSA, washed four times with PBS, and then incubated in darkness with the fluorescent secondary antibody Alexa Fluor 488 goat anti-mouse IgG (Molecular Probes, Invitrogen, Eugenen, OR, USA) and diluted 1:400 in PBS containing 1% BSA for 1.5 h. The coverslips were washed four times with PBS, and a drop of ProLong™ Gold Antifade Mountant containing DAPI (ThermoFisher, Waltham, MA, USA) was added for cell nuclei staining. The samples were analyzed via confocal microscopy, which was performed by using a LEICA SP5 microscope DMI-6000V model coupled to a LEICA LAS AF software computer.

T1 sequence (Q6B856 whole entry): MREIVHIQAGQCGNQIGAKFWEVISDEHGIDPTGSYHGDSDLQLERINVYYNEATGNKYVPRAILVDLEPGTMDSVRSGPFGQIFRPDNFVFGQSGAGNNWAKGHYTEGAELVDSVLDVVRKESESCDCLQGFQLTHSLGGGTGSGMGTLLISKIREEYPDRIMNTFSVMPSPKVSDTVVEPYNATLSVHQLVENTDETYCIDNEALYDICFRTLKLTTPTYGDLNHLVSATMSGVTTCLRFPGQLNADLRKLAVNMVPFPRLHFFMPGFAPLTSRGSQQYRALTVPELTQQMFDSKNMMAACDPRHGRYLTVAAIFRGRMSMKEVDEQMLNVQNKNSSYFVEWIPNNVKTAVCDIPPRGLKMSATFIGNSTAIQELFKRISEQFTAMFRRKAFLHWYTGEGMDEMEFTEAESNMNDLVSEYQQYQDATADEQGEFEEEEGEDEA
T1 sequence (P81947 whole entry): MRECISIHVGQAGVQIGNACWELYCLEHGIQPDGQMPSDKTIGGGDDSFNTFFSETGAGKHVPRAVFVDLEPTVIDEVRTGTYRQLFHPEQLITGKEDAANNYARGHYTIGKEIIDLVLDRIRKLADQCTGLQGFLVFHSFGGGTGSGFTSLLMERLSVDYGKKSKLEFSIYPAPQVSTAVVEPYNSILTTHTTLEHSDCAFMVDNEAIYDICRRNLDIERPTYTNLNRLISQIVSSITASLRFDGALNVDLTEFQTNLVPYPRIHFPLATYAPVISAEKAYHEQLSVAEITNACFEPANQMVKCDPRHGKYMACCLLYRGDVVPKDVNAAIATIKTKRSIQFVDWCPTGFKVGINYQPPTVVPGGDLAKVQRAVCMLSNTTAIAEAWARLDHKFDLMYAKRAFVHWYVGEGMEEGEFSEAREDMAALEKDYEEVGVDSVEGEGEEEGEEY

| SMILES | IC50 [1] [µM] | G0/G1 population ([2]; 24 h) [% Cells] | G2/M population ([2]; 24 h) [% Cells] | S population ([2]; 24 h) [% Cells] | SubG0/G1 population ([2]; 24 h) [% Cells] | G0/G1 population ([2]; 48 h) [% Cells] | G2/M population ([2]; 48 h) [% Cells] | S population ([2]; 48 h) [% Cells] | SubG0/G1 population ([2]; 48 h) [% Cells] | G0/G1 population ([2]; 72 h) [% Cells] | G2/M population ([2]; 72 h) [% Cells] | S population ([2]; 72 h) [% Cells] | early and late apoptotic populations [3] [%] | Necrotic cells [3] [%] | effect on microtubule network [4] |
| --- | --- | --- | --- | --- | --- | --- | --- | --- | --- | --- | --- | --- | --- | --- | --- |
| CSc1cc(-c2nnnn2-c2ccc3c(ccn3C)c2)cc(Cl)n1 [Compound 10, 5-(5-(2-chloro-6-(methylsulfanyl)pyridin-4-yl)-1H-tetrazol-1-yl)-1-methyl-1H-indole] | 1.5 ± 0.1 | 21.1 | 47.8 | 8.3 | 23.5 | 11.0 | 31.6 | 9.0 | 49.2 | 10.5 | 17.0 | 2.9 | 22 | 2.3 | severe microtubule network disruption |
| Cn1cc(C=O)c2cc(-n3nnnc3-c3cc(Cl)nc(Cl)c3)ccc21 [Compound 12, 5-(5-(2,6-dichloropyridin-4-yl)-1H-tetrazol-1-yl)-1-methyl-1H-indole-3-carbaldehyde] | 1.3 ± 0.1 | 27.3 | 37.8 | 9.6 | 26.1 | 11.9 | 27.4 | 10.3 | 51.1 | 12.2 | 10.0 | 7.8 | 8 | 7 | severe microtubule network disruption |
| CSc1cc(-c2nnnn2-c2ccc3c(c2)c(C=O)cn3C)cc(Cl)n1 [Compound 14, 5-(5-(2-chloro-6-(methylsulfanyl)pyridin-4-yl)-1H-tetrazol-1-yl)-1-methyl-1H-indole-3-carbaldehyde] | 0.8 ± 0.1 | 23.7 | 41.3 | 8.5 | 27.2 | 12.5 | 32.1 | 10.6 | 45.4 | 11.1 | 9.6 | 6.9 | 29 | 2.6 | severe microtubule network disruption |

— publication PMC10342533, “Novel Tetrazole Derivatives Targeting Tubulin Endowed with Antiproliferative Activity against Glioblastoma Cells” (International Journal of Molecular Sciences, 2023)
